Laboratory results: patent US11319316B2, “Compounds that induce degradation of anti-apoptotic Bcl-2 family proteins and the uses thereof” (BioVentures, LLC, priority 2016, dated 2022)

How the values were obtained:
Format in all cases: cell-based
[1] = tested on: Normal WI38 (NSC); test: Viability of normal WI38 cells (NSC), 72 h, PI staining and flow cytometry; conditions: Homo sapiens, WI-38, viable (PI-) cells as percentage of vehicle control
Procedure: (§1) Normal WI38 (NSC) and IR-induced senescent WI38 cells (IR-SC) were incubated with vehicle or increasing concentrations of compounds of Formula (I) or Formula (II) for 72 hours. The cells were digested with 0.25% trypsin and 1 mM EDTA, and harvested in PBS containing 2% FBS. After incubation with propidium iodide (PI, 100 ng/ml) in PBS at room temperature for 1 minute, cells were centrifuged at 1,200 rpm for 6 minutes to remove PI and then resuspended in PBS containing 2% FBS for analysis using a flow cytometer. Viable cells (PI-cells) were analyzed by flow cytometry at a constant flow rate to count the number of cells and calculated as a percentage of control cells treated with vehicle. Table 1 depicts the EC50 values of the compounds of Formula (I) and compounds of Formula (II) against normal WI38 and IR-induced senescent WI38.

[2] = tested on: IR-induced senescent WI38 cells (IR-SC); test: Viability of IR-induced senescent WI38 cells (IR-SC), 72 h, PI staining and flow cytometry; conditions: for EC50: Homo sapiens, WI-38, IR-induced senescent WI38 cells, 72 hours, viable (PI-) cells as percentage of vehicle control; for Ratio NSC/SC: ratio of WI38 EC50 in NSC to EC50 in IR-SC; for Selective inhibition of IR-SC WI38 cells versus normal WI38 cells: FIG. 2A, FIG. 2B, increasing concentrations
Procedure: as §1

[3] = tested on: RS4; 11 cancer cells; test: Cancer cell viability by MTS, 72 h, RS4;11; conditions: Homo sapiens, RS4;11 cells
Procedure: (§2) RS4; 11 and NCI-H146 cancer cells were incubated with vehicle or increasing concentrations of compounds of Formula (I) and Formula (II). At 72 hours post-treatment cell viability was measured by MTS and EC50 was calculated as a percentage of control cells treated with vehicle. Table 1 depicts the EC50 values of compounds of Formula (I) and Formula (II) against RS4; 11 and NCI-H146.

[4] = tested on: NCI-H146 cancer cells; test: Cancer cell viability by MTS, 72 h, NCI-H146; conditions: Homo sapiens
Procedure: as §2

Row | SMILES | EC50 [1] | EC50 [2] | Ratio NSC/SC [2] | EC50 [3] | EC50 [4] | Selective inhibition of IR-SC WI38 cells versus normal WI38 cells [2]
1 | CC1(C)CCC(c2ccc(Cl)cc2)=C(CN2CCN(c3ccc(C(=O)NS(=O)(=O)c4ccc(N[C@H](CCN5CCN(C(=O)NCCOCCOCCNc6cccc7c6C(=O)N(C6CCC(=O)NC6=O)C7=O)CC5)CSc5ccccc5)c(S(=O)(=O)C(F)(F)F)c4)cc3)CC2)C1 (stereo partly drawn) [XZ-14509, 4-((R)-3-(4-(N-(4-(4-((2-(4-chlorophenyl)-5,5-dimethylcyclohex-1-enyl)methyl)piperazin-1-yl)benzoyl)sulfamoyl)-2-(trifluoromethylsulfonyl)phenylamino)-4-(phenylthio)butyl)-N-(2-(2-(2-(2-(2,6-dioxopiperidin-3-yl)-1,3-dioxoisoindolin-4-ylamino)ethoxy)ethoxy)ethyl)piperazine-1-carboxamide] | > 10000 nM | 226 nM | >44.22 | 90 nM | 65 nM | 
2 | CC1(C)CCC(CN2CCN(c3ccc(C(=O)NS(=O)(=O)c4ccc(NCC5CCOCC5)c([N+](=O)[O-])c4)c(Oc4cnc5[nH]ccc5c4)c3)CC2)=C(c2ccc(Cl)cc2)C1 [ABT-199, venetoclax, reference compound] | > 10000 nM | > 10000 nM |  |  |  | 
3 | CC(C)(C)OC(=O)N1CCN(CC#Cc2ccc(OCCCc3sc(N4CCc5cccc(C(=O)Nc6nc7ccccc7s6)c5C4)nc3C(=O)O)c(F)c2)CC1 [XZ-13861, 2-(8-(benzo[d]thiazol-2-ylcarbamoyl)-3,4-dihydroisoquinolin-2(1H)-yl)-5-(3-(4-(3-(4-(tert-butoxycarbonyl)piperazin-1-yl)prop-1-ynyl)-2-fluorophenoxy)propyl)thiazole-4-carboxylic acid] | 32800 nM | 3120 nM | 10.51 |  |  | selectively inhibit IR-SC WI38 cells but not normal WI 38 cells in a dose dependent manner
4 | Cc1ncsc1-c1ccc(CNC(=O)[C@@H]2C[C@@H](O)CN2C(=O)[C@@H](NC(=O)CCC(=O)NCCOCCOCCNC(=O)N2CCN(CC[C@H](CSc3ccccc3)Nc3ccc(S(=O)(=O)NC(=O)c4ccc(N5CCN(CC6=C(c7ccc(Cl)cc7)CCC(C)(C)C6)CC5)cc4)cc3S(=O)(=O)C(F)(F)F)CC2)C(C)(C)C)cc1 [XZ-14529] | > 10000 nM | > 10000 nM |  | 823 nM | > 2000 nM | 
5 | CC1(C)CCC(c2ccc(Cl)cc2)=C(CN2CCN(c3ccc(C(=O)NS(=O)(=O)c4ccc(N[C@H](CCN5CCN(C(=O)COCCOCCOCCOCCNc6cccc7c6C(=O)N(C6CCC(=O)NC6=O)C7=O)CC5)CSc5ccccc5)c(S(=O)(=O)C(F)(F)F)c4)cc3)CC2)C1 (stereo partly drawn) [XZ-14540] | > 10000 nM | 1130 nM | 8.86 | 82.4 nM | 76.2 nM | 
6 | CC1(C)CCC(CN2CCN(c3ccc(C(=O)NS(=O)(=O)c4ccc(NCC5CCN(C(=O)COCCOCCOCCNc6cccc7c6C(=O)N(C6CCC(=O)NC6=O)C7=O)CC5)c([N+](=O)[O-])c4)c(Oc4cnc5[nH]ccc5c4)c3)CC2)=C(c2ccc(Cl)cc2)C1 (stereo not drawn) [XZ-14522] | > 10000 nM | > 10000 nM |  | 47 nM | 1100 nM | 
7 | CC1(C)CCC(c2ccc(Cl)cc2)=C(CN2CCN(c3ccc(C(=O)NS(=O)(=O)c4ccc(N[C@H](CCN5CCOCC5)CSc5ccccc5)c(S(=O)(=O)C(F)(F)F)c4)cc3)CC2)C1 [ABT-263, navitoclax, reference compound] | 12600 nM | 610 nM | 20.6 | 16 nM | 27.5 nM | 
8 | CC1(C)CCC(c2ccc(Cl)cc2)=C(CN2CCN(c3ccc(C(=O)NS(=O)(=O)c4ccc(N[C@H](CCN5CCN(C(=O)COCCOCCNc6cccc7c6C(=O)N(C6CCC(=O)NC6=O)C7=O)CC5)CSc5ccccc5)c(S(=O)(=O)C(F)(F)F)c4)cc3)CC2)C1 (stereo partly drawn) [XZ-14515] | > 10000 nM | 158 nM | >63.27 | 173 nM | 79.2 nM | 
9 | Cc1ncsc1-c1ccc(CNC(=O)[C@@H]2C[C@@H](O)CN2C(=O)[C@@H](NC(=O)CCC(=O)NCCOCCOCCNC(=O)N2CCC(CNc3ccc(S(=O)(=O)NC(=O)c4ccc(N5CCN(CC6=C(c7ccc(Cl)cc7)CC(C)(C)CC6)CC5)cc4Oc4cnc5[nH]ccc5c4)cc3[N+](=O)[O-])CC2)C(C)(C)C)cc1 [XZ-14528, N1-(2-(2-(2-(4-(((4-N-(2-((1H-pyrrolo[2,3-b]pyridin-5-yl)oxy)-4-(4-((4′-chloro-5,5-dimethyl-3,4,5,6-tetrahydro-(1,1′-biphenyl-2-yl)methyl)piperazin-1-yl)benzoyl)sulfamoyl)-2-nitrophenyl)amino)methyl)piperidine-1-carboxamido)ethoxy)ethoxy)ethyl)-N4-((S)-1-((2S,4R)-4-hydroxy-2-((4-(4-methylthiazol-5-yl)benzyl)carbamoyl)pyrrolidin-1-yl)-3,3-dimethyl-1-oxobutan-2-yl)succinamide] | > 10000 nM | > 10000 nM |  | 397 nM | > 2000 nM | 
10 | CC1(C)CCC(c2ccc(Cl)cc2)=C(CN2CCN(c3ccc(C(=O)NS(=O)(=O)c4ccc(N[C@H](CCN5CCN(C(=S)NCCOCCOCCNc6cccc7c6C(=O)N(C6CCC(=O)NC6=O)C7=O)CC5)CSc5ccccc5)c(S(=O)(=O)C(F)(F)F)c4)cc3)CC2)C1 (stereo partly drawn) [XZ-14516, 4-(4-((2-(4-chlorophenyl)-5,5-dimethylcyclohex-1-enyl)methyl)piperazin-1-yl)-N-(4-((2R)-4-(4-(2-(2-(2-(2-(2,6-dioxopiperidin-3-yl)-1,3-dioxoisoindolin-4-ylamino)ethoxy)ethoxy)ethylcarbamothioyl)piperazin-1-yl)-1-(phenylthio)butan-2-ylamino)-3-(trifluoromethylsulfonyl)phenylsulfonyl)benzamide] | > 10000 nM | 92 nM | >109 | 1090 nM | 517 nM | 
11 | CC1(C)CCC(CN2CCN(c3ccc(C(=O)NS(=O)(=O)c4ccc(NCC5CCN(C(=O)CCCn6cc(COCCOCCOCCNc7cccc8c7C(=O)N(C7CCC(=O)NC7=O)C8=O)nn6)CC5)c([N+](=O)[O-])c4)c(Oc4cnc5[nH]ccc5c4)c3)CC2)=C(c2ccc(Cl)cc2)C1 (stereo not drawn) [XZ-14523, 2-((1H-pyrrolo[2,3-b]pyridin-5-yl)oxy)-4-(4-((4′-chloro-5,5-dimethyl-3,4,5,6-tetrahydro-[1,1′-biphenyl]-2-yl)methyl)piperazin-1-yl)-N-((4-(((1-(4-(4-((2-(2-(2-((2-(2,6-dioxopiperidin-3-yl)-1,3-dioxoisoindolin-4-yl)amino)ethoxy)ethoxy)ethoxy)methyl)-1H-1,2,3-triazol-1-yl)butanoyl)piperidin-4-yl)methyl)amino)-3-nitrophenyl)sulfonyl)benzamide] | > 10000 nM | > 10000 nM |  | 161 nM | 1260 nM | 
12 | O=C1CCC(N2C(=O)c3cccc(NCCOCCOCc4cn(CCCC(=O)N5CCN(CC#Cc6ccc(OCCCc7sc(N8CCc9cccc(C(=O)Nc%10nc%11ccccc%11s%10)c9C8)nc7C(=O)O)c(F)c6)CC5)nn4)c3C2=O)C(=O)N1 (stereo not drawn) [XZ-14424, 2-(8-(benzo[d]thiazol-2-ylcarbamoyl)-3,4-dihydroisoquinolin-2(1H)-yl)-5-(3-(4-(3-(4-(4-(4-((2-(2-((2-(2,6-dioxopiperidin-3-yl)-1,3-dioxoisoindolin-4-yl)amino)ethoxy)ethoxy)methyl)-1H-1,2,3-triazol-1-yl)butanoyl)piperazin-1-yl)prop-1-yn-1-yl)-2-fluorophenoxy)propyl)thiazole-4-carboxylic acid] | 1600 nM | 1400 nM | 1.2 |  |  | 
13 | O=C1CCC(N2C(=O)c3cccc(NCCOCCOCCOCc4cn(CCCC(=O)N5CCN(CC#Cc6ccc(OCCCc7sc(N8CCc9cccc(C(=O)Nc%10nc%11ccccc%11s%10)c9C8)nc7C(=O)O)c(F)c6)CC5)nn4)c3C2=O)C(=O)N1 (stereo not drawn) [XZ-12906, 2-(8-(benzo[d]thiazol-2-ylcarbamoyl)-3,4-dihydroisoquinolin-2(1H)-yl)-5-(3-(4-(3-(4-(4-(4-((2-(2-(2-(2-(2,6-dioxopiperidin-3-yl)-1,3-dioxoisoindolin-4-ylamino)ethoxy)ethoxy)ethoxy)methyl)-1H-1,2,3-triazol-1-yl)butanoyl)piperazin-1-yl)prop-1-ynyl)-2-fluorophenoxy)propyl)thiazole-4-carboxylic acid] |  |  |  |  |  | selectively inhibit IR-SC WI38 cells but not normal WI 38 cells in a dose dependent manner
